The data set can be described thus: RP, Thermo Scientific Acclaim RSLC 120 C18, 100 × 2.1 mm, 2.2 µm, 30 °C, 0.2 mL/min, estimated dead time 1.1 min; A: 90% water + 10% methanol + 0.01% formic acid + 5 mM ammonium formate, pH 3.61; B: methanol + 0.01% formic acid + 5 mM ammonium formate, pH 3.61; gradient (min/%B) 0/1 1/1 2/39 13/99.9 15/99.9 15.1/1 20.1/1. The following applies: stereoisomer not certain.

The text below walks through data of the RepoRT retention time repository (doi:10.1021/acs.analchem.2c02893).

As for `Nc1ccc(S(=O)(=O)Nc2ncccn2)cc1` [Sulfadiazine], the LC retention time was 3.48 min. Regarding `COc1cc(NS(=O)(=O)c2ccc(N)cc2)nc(OC)n1` [Sulfadimethoxine], the LC retention time is 5.6 min. In the case of `Cc1cc(C)nc(NS(=O)(=O)c2ccc(N)cc2)n1` [Sulfadimidine (Sulfamethazine)] it was 4.31 min; in that of `COc1ncnc(NS(=O)(=O)c2ccc(N)cc2)c1OC` [Sulfadoxine], 4.75 min. The result for `NC(N)=NS(=O)(=O)c1ccc(N)cc1` [Sulfaguanidine] reads 1.93 min; that for `COc1nccnc1NS(=O)(=O)c1ccc(N)cc1` [Sulfalene], 4.44 min. The result for `Cc1ccnc(NS(=O)(=O)c2ccc(N)cc2)n1` [Sulfamerazine] reads 3.95 min; that for `COc1cnc(NS(=O)(=O)c2ccc(N)cc2)nc1` [Sulfameter (sulfumetin)], 4.18 min; that for `Cc1nnc(NS(=O)(=O)c2ccc(N)cc2)s1` [Sulfamethizole], 4.21 min.

Consider `Cc1cc(NS(=O)(=O)c2ccc(N)cc2)on1` [Sulfamethoxazole (Impurity F)], for which the LC retention time is 4.39 min.

As to `Cc1cc(NS(=O)(=O)c2ccc(NO)cc2)no1` [Sulfamethoxazole hydroxylamine], the LC retention time is 4.54 min. In the case of `CC(=O)Nc1ccc(S(=O)(=O)Nc2cc(C)on2)cc1` [Sulfamethoxazole-N4-Acetyl  (Impurity A)] it was 5.28 min; in that of `Cc1cc(NS(=O)(=O)c2ccc(N)cc2)no1` [Sulfamethoxazole], 4.6 min; in that of `COc1ccc(NS(=O)(=O)c2ccc(N)cc2)nn1` [Sulfamethoxypyridazine], 4.38 min. In the case of `COc1cc(NS(=O)(=O)c2ccc(N)cc2)ncn1` [Sulfamonomethoxine] it was 4.75 min. The result for `Cc1nc(NS(=O)(=O)c2ccc(N)cc2)oc1C` [Sulfamoxole] reads 4.11 min; that for `Nc1ccc(S(=O)(=O)Nc2ccccn2)cc1` [Sulfapyridine], 3.8 min; that for `Nc1ccc(S(=O)(=O)Nc2cnc3ccccc3n2)cc1` [Sulfaquinoxaline], 5.81 min. As for `O=C(O)c1cc(N=Nc2ccc(S(=O)(=O)Nc3ccccn3)cc2)ccc1O` [Sulfasalazine], the LC retention time is 6.61 min.

In the case of `CC(=O)Nc1ccc(S(=O)(=O)Nc2nccs2)cc1` [Sulfathiazole-N4-Acetyl], the LC retention time is 4.24 min.

`O=C(O)c1ccccc1C(=O)Nc1ccc(S(=O)(=O)Nc2nccs2)cc1` [Sulfathiazole-Phthalyl]: the LC retention time was 4.66 min. In the case of `Nc1ccc(S(=O)(=O)Nc2nccs2)cc1` [Sulfathiazole] it was 3.63 min; in that of `O=C1C(CCS(=O)c2ccccc2)C(=O)N(c2ccccc2)N1c1ccccc1` (stereo not given) [Sulfinpyrazone], 7.94 min; in that of `Cc1noc(NS(=O)(=O)c2ccc(N)cc2)c1C` [Sulfisoxazole], 4.71 min. With `COC(=O)c1ccccc1S(=O)(=O)NC(=O)Nc1nc(C)cc(C)n1` [Sulfometuron-methyl], the LC retention time was 6.92 min. The result for `CCOP(=S)(OCC)OP(=S)(OCC)OCC` [Sulfotepp] reads 10.8 min; that for `CC1=C(CC(=O)O)c2cc(F)ccc2C1=Cc1ccc(S(C)=O)cc1` (stereo not given) [Sulindac], 8.24 min.

As for `CCN1CCCC1CNC(=O)c1cc(S(N)(=O)=O)ccc1O` (stereo not given) [Sulpiride-O-Desmethyl], the LC retention time is 3.18 min. The result for `CCN1CCCC1CNC(=O)c1cc(S(N)(=O)=O)ccc1OC` (stereo not given) [Sulpiride] reads 2.94 min.

Turning to `CCCSP(=S)(OCC)Oc1ccc(SC)cc1` (stereo not given) [Sulprofos (Bolstar)], the LC retention time was 12.8 min.
